Reference: patent US7109333B2, “Heterocyclic compounds” (SmithKline Beecham Corporation, priority 1998, dated 2006)
Counter-ions that a name gives are not always drawn.

Tests used:
[1] = Major metabolites: liver S-9 homogenate incubation, LC-MS metabolite identification; format: in vitro ADME, Sprague Dawley rat and human; conditions: liver S-9 (rat, human), 10 μM, 60 min, 37° C.
Method: Liver S-9 homogenates (5 mg/mL protein concentration) from prepared pooled male Sprague Dawley rat livers and pooled human livers (XenoTech, LLC, Kansas City, Kans.) were incubated in 96-well polypropylene plates with representative examples selected from examples 1 to 40 (10 μM) in a total volume of 0.5 mL. Stock solutions of these compounds were prepared in DMSO at a concentration of 1 mM to maintain a <1% final DMSO concentration for each reaction. Enzymatic incubations contained cofactors (5.71 mM NADPH, 7.14 mM glucose-6-phosphate, 7.14 mM UDPGA, 47.1 mM potassium chloride, and 11.4 mM magnesium chloride in 0.1 M potassium phosphate buffer, pH 7.4). Control samples were aspirated from the reaction samples at time zero and placed immediately into 2 volumes of ice-chilled acetonitrile. Sample reaction plates were incubated for 60 min in a shaker incubator maintained at 37° C. supplied with O2. Reactions were terminated by addition of 2 volumes of ice-chilled acetonitrile. All samples were vortexed and centrifuged at 2000×g for 10 min. The supernatant was removed and analyzed by LC-MS. The metabolite identification work was done by using reversed-phase HPLC coupled with ion-trap mass spectroscopy.

[2] = system: HN5 head and neck tumor cell line; experiment: Methylene blue growth inhibition assay, HN5; format: cell-based; conditions: Homo sapiens, 72 h; HN5, 3 days; read-out: Cell Proliferation HN5, IC50
Method: (§1) Human breast (BT474), head and neck (HN5) and gastric tumor (N87) cell lines were cultured in low glucose DMEM (Life Technologies 12320–032) containing 10% fetal bovine serum (FBS) at 37° C. in a humidified 10% CO2, 90% air incubator. The SV40 transformed human mammary epithelial cell line HB4a was transfected with either human H-ras cDNA (HB4a r4.2) or the human c-erbB2 cDNA (HB4a c5.2). The HB4a clones were cultured in RPMI containing 10% FBS, insulin (5 μg/ml), hydrocortisone (5 μg/ml), supplemented with the selection agent hygromycin B (50 μg/ml). Cells were harvested using trypsin/EDTA, counted using a haemocytometer, and plated in […] of the appropriate media, at the following densities, in a 96-well tissue culture plate (Falcon 3075): BT474 10,000 cells/well, HN5 3,000 cells/well, N87 10,000 cells/well, HB4a c5.2 3,000 cells/well, HB4a r4.2 3,000 cells/well. The next day, compounds were diluted in DMEM containing […] gentamicin, at twice the final required concentration, from 10 mM stock solutions in DMSO. […] of these dilutions were added to the […] of media currently on the cell plates. Medium containing 0.6% DMSO was added to control wells. Compounds diluted in DMEM were added to all cell lines, including the HB4a r4.2 and HB4a c5.2 cell lines. The final concentration of DMSO in all wells was 0.3%. Cells were incubated at 37° C., 10% CO2 for 3 days. Medium was removed by aspiration. Cell biomass was estimated by staining cells with 100 μl per well methylene blue (Sigma M9140, 0.5% in 50:50 ethanol:water), and incubation at room temperature for at least 30 minutes. Stain was removed, and the plates rinsed under a gentle stream of water, and air-dried. To release stain from the cells 100 μl of solubilization solution was added (1% N-lauroyl sarcosine, Sodium salt, Sigma L5125, in PBS), and plates were shaken gently for about 30 minutes. Optical density at 620 nm was measured on a microplate reader. Percent inhibition of cell growth was calculated relative to vehicle treated control wells. Concentration of compound that inhibits 50% of cell growth (IC50) was interpolated using nonlinear regression (Levenberg-Marquardt) and the equation, y=Vmax*(1−(x/(K+x)))+Y2, where “K” was equal to the IC50.

[3] = molecular target: T1, EGFr isolated from solubilised A431 cell membranes (Homo sapiens, UniProt P00533); experiment: Substrate phosphorylation assay, EGF-r, assay (a) (time-resolved fluorescence); format: biochemical
T1 construct: EGFr isolated from solubilised A431 cell membranes; endogenous in cells; host or cells: A431 cell membranes (solubilised)
Source text: (§2) The substrate phosphorylation assays use baculovirus expressed, recombinant constructs of the intracellular domains of c-erbB-2 and c-erbB-4 that are constitutively active and EGFr isolated from solubilised A431 cell membranes. The method measures the ability of the isolated enzymes to catalyse the transfer of the g-phosphate from ATP onto tyrosine residues in a biotinylated synthetic peptide (Biotin-[…]. Substrate phosphorylation was detected following either of the following two procedures: a.) c-ErbB-2, c-ErbB4 or EGFr were incubated for 30 minutes, at room temperature, with 10 mM MnCl2, 10 mM ATP, 5 mM peptide, and test compound (diluted from a 5 mM stock in DMSO, final DMSO concentration is 2%) in 40 mM HEPES buffer, pH 7.4. The reaction was stopped by the addition of EDTA (final concentration 0.15 mM) and a sample was transferred to a streptavidin-coated 96-well plate. The plate was washed and the level of phosphotyrosine on the peptide was determined using a Europium-labelled antiphosphotyrosine antibody and quantified with a time-resolved fluorescence technique. b.) ErbB2 was incubated for 50 minutes at room temperature with 15 mM MnCl2, 2 mM ATP, 0.25 mCi [γ-^33P] ATP/well, 5 mM peptide substrate, and test compound (diluted from a 10 mM stock in DMSO, final DMSO concentration is 2%) in 50 mM MOPS pH 7.2. The reaction was terminated by the addition of […] of PBS containing 2.5 mg/ml streptavidin-coated SPA beads (Amersham Inc.), 50 mM ATP, 10 mM EDTA and 0.1% TX-100. The microtitre plates were sealed and SPA beads were allowed to settle for at least six hours. The SPA signal was measured using a Packard Topcount 96-well plate scintillation counter (Packard Instrument Co., Meriden, Conn.).

[4] = system: HB4a r4.2 (HB4a transfected with human H-ras cDNA); experiment: Methylene blue growth inhibition assay, HB4a ras; format: cell-based; conditions: 72 h, HB4a r4.2, 3 days, read-out: Cell Proliferation HB4a ras, IC50
Method: as §1

[5] = system: BT474 breast tumor cell line; experiment: Methylene blue growth inhibition assay, BT474; format: cell-based; conditions: Homo sapiens, BT-474, 72 h; BT474, 3 days; read-out: Cell Proliferation BT474, IC50
Method: as §1

[6] = molecular target: T2, c-erbB-2 (Homo sapiens, UniProt P04626); experiment: Substrate phosphorylation assay, erbB2, assay (b) (SPA, 33P-ATP); format: biochemical; conditions: Tables 1A and 1B
T2 construct: baculovirus expressed, recombinant constructs of the intracellular domains of c-erbB-2 and c-erbB-4; made in house
Source text: as §2

[7] = system: HB4a c5.2 (HB4a transfected with human c-erbB2 cDNA); experiment: Methylene blue growth inhibition assay, HB4a erbB2; format: cell-based; conditions: 72 h, HB4a c5.2, 3 days, read-out: Cell Proliferation HB4a erbB2, IC50
Method: as §1

[8] = system: N87 gastric tumor cell line; experiment: Methylene blue growth inhibition assay, N87; format: cell-based; conditions: Homo sapiens, 72 h; N87, 3 days; read-out: Cell Proliferation N87, IC50
Method: as §1

T1 sequence (P00533 25-1210): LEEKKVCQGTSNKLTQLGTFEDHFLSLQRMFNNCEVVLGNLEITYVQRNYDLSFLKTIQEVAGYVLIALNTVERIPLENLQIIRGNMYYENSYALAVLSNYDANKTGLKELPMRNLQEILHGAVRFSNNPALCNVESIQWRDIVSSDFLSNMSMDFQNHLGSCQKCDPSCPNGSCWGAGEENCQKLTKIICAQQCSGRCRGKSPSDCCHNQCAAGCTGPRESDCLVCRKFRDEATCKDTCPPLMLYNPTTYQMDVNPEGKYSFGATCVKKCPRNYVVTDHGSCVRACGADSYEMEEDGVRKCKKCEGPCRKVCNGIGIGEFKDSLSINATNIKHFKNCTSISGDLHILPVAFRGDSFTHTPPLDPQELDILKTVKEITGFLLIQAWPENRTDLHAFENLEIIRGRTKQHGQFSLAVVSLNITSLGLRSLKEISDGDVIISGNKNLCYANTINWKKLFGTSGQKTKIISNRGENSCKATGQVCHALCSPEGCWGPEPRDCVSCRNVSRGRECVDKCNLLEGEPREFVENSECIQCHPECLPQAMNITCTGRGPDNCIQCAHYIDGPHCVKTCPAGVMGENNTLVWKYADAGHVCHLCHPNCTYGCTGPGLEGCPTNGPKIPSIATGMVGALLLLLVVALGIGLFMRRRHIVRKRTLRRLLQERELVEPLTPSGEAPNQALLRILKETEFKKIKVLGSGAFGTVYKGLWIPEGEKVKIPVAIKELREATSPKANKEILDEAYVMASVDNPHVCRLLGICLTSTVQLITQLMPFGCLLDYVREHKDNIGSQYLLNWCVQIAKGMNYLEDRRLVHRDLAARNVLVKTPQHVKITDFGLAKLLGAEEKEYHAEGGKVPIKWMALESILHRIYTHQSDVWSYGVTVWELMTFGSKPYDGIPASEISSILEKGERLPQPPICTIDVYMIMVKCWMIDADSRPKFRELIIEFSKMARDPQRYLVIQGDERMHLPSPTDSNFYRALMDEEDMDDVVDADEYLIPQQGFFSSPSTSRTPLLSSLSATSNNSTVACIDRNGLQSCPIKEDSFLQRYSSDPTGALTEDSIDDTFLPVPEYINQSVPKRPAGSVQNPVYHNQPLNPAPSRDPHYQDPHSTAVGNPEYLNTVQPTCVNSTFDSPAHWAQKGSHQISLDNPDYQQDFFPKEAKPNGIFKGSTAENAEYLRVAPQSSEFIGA
T2 sequence (P04626 676-1255 limits assumed): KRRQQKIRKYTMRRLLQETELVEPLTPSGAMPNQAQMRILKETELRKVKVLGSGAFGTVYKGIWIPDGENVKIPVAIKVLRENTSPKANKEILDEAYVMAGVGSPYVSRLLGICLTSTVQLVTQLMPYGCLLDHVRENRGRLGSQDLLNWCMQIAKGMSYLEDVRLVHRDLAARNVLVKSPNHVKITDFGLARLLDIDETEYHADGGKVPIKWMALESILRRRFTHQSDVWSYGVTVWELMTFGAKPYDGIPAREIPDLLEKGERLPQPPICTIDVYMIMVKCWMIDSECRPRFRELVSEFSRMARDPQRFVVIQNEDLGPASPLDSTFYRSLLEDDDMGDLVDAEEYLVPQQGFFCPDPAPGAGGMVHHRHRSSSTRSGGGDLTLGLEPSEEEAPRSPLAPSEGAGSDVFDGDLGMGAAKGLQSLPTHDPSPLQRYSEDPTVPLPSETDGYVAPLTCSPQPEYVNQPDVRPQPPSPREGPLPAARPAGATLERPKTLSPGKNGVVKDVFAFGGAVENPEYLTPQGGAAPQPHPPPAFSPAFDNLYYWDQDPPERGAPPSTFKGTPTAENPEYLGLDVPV

Row | Compound | identified as a major metabolite of N-[4-(benzyloxy)phenyl]-6-[4-({[2-(methanesulphonyl)ethyl]amino}methyl)-2-furyl]-4-quinazolinamine (Example 11) [1] | IC50 [2] [µM] | IC50 [3] [µM] | IC50 [4] [µM] | IC50 [5] [µM] | IC50 [6] [µM] | IC50 [7] [µM] | IC50 [8] [µM]
1 | NCc1coc(-c2ccc3ncnc(Nc4ccc(OCc5ccccc5)cc4)c3c2)c1 [N-[4-(Benzyloxy)phenyl]-6-[4-(aminomethyl)-2-furyl]-4-quinazolinamine] | identified as a major metabolite | – | – | – | – | – | – | –
2 | CS(=O)(=O)CCNCc1ccc(-c2cc3c(Nc4ccc(S(=O)(=O)c5ccccc5)cc4)ncnc3cn2)o1 [Example 3, (4-Benzenesulphonyl-phenyl)-(6-(5-((2-methanesulphonyl-ethylamino)-methyl)-furan-2-yl)-pyrido[3,4-d]pyrimidin-4-yl)-amine dihydrochloride] | – | < 5 | < 0.1 | 25 to 50 | < 5 | < 0.1 | < 5 | < 5
3 | CS(=O)(=O)CCNCc1ccc(-c2cc3c(Nc4ccc(OCc5ccc(F)cc5)cc4)ncnc3cn2)o1 [Example 1, (4-(4-Fluorobenzyloxy)-phenyl)-(6-(5-((2-methanesulphonyl-ethylamino)methyl)-furan-2-yl)-pyrido[3,4-d]pyrimidin-4-yl)-amine dihydrochloride] | – | < 5 | < 0.1 | 25 to 50 | < 5 | < 0.1 | < 5 | < 5
4 | CS(=O)(=O)CCNCc1ccc(-c2cc3c(Nc4ccc(OCc5cccc(F)c5)cc4)ncnc3cn2)o1 [Example 2, (4-(3-Fluorobenzyloxy)-phenyl)-(6-(5-((2-methanesulphonyl-ethylamino)methyl)-furan-2-yl)-pyrido[3,4-d]pyrimidin-4-yl)-amine dihydrochloride] | – | < 5 | < 0.1 | 25 to 50 | < 5 | < 0.1 | < 5 | < 5
